Results reported in US7968558B2, “Amidine derivatives of 2-heteroaryl-quinazolines and quinolines; potent analgesics and anti-inflammatory agents” (Rottapharm S.p.A., priority 2006, dated 2011).
Structures can show the parent of a compound that is named as a salt. Where two headings read alike, the source gives them in different places.

Assays:
[1] = tested on: Zymosan-induced mechanical hyperalgesia; assay: Zymosan-induced mechanical hyperalgesia (Randall-Selitto); type: in vivo, rat; conditions: for ED50: Rattus norvegicus, read-out: Analgesia ED50; for Analgesia ED100: calculated from linear dose-response
Description: (§1) The interplantar injection of Zymosan-induced mechanical hyperalgesia was used as a model of inflammatory pain (Meller, Neuropharmacology, 1994, 33, 1471-1478). In this model, typically a male Sprague-Dawley or Wistar rat (200-250 g) receives an interplantar injection of 3 mg/100 μl zymosan into one hind paw. A marked inflammation occurs in this hind paw. Drugs are administered orally for evaluation of efficacy, 30 min. before the inflammatory insult. The hyperalgesia induced by zymosan administration was evaluated using the Randall-Selitto method (Arch. Int. Pharmacodyn., 1957, 111, 409). The quantitation of the analgesic effect is achieved by an analgesimeter, which consist in applying to the inflamed paw an increasing weight (from 130-140 g up to 500 g). The difference in the mechanical pain threshold between the basal value (generally 230-250 g) and the one tolerated by the animals treated with the drug, determined 4 hours after the inflammatory challenge, is defined as mechanical hyperalgesia.
(§2) Mechanical hyperalgesia is expressed for the compounds of the invention as ED50, which is the dose of the administered compound able to increase the pain threshold by 50% in comparison with the group of control animals. The corresponding ED100, representing the dose able of reducing of 100% the pain threshold, can be calculated for those cases where there is a linear dose-response relationship. In vivo anti-inflammatory effect exerted by the compound of the invention can be assessed in the same Zymosan induced inflammation test described above, by measuring the volume of the oedema induced by the inflammatory agent. The oedema was evaluated as the increase in the volume of the Zymosan injected paw within a time of 0-2 hrs. The measurements of the variation of the oedema volume of the paw were recorded using hydroplethysmometer, which consists of two plastic cuvettes containing a surfactant liquid, the larger one being used for immersion of the paw, connected to the smaller one which contains a trans-ducer capable of recording small displacements of the volume used for the measure. The paw is immersed in the cuvettes up to the tibiotarsal joint. The volume of the liquid displaced is proportional to the extent of the inflammation. The efficacy of the compounds of the invention in preventing oedema formation is expressed as ED30, and is measured 2 hours after the inflammatory challenge, and represents the dose able of reducing of 30%, the Zymosan induced paw volume increase in comparison to control animals (animals treated with Zymosan but treated with only distilled water instead of the testing compound). The corresponding ED50, representing the dose able of reducing of 50% the zymosan induced paw volume increase, can be calculated for those cases where there is a linear dose-response relationship.
(§3) In both the experiments, for each test compound, at least three doses were used, with 10 animals per group. Compounds of the invention were tested at 10, 20 and 40 mg/Kg.

[2] = tested on: Zymosan induced paw volume increase; assay: Zymosan-induced paw oedema; type: in vivo, rat; conditions: for ED50: Rattus norvegicus, read-out: Oedema Reduction ED50; for Oedema Reduction ED30: 2 hours after challenge
Description: as §1, §2, §3

CFA-induced hyperalgesia = assay: CFA model of chronic inflammatory pain; type: in vivo, rat
[3] = tested on: formalin-induced paw licking; assay: Formalin (licking) test; type: in vivo, mice; conditions: for ED50: Mus musculus, ip
Description: The formalin test is increasingly used as a model of injury-produced pain (FV. Abbott, Pain, 1995, 60, 91-102). The procedure used for the evaluation of the compounds of the invention was similar to that reported by literature (S. Hunskaar, Pain, 1987, 30, 103-104), and consisted of the injection of 20 μl of 1% solution of formalin dissolved in distilled water, in the plantar surface of the right hind paw of the mice. Immediately, the animals were placed individually in an observation chamber. The amount of time that the animal spent licking the injected paw, considered indicative of pain, was recorded during 30 min. following formalin injection. The initial nociceptive scores normally peaked 5 min after formalin injection (early phase) and 15-30 min. after formalin injection (late phase), representing both the neurogenic and inflammatory pain responses respectively.
Animals were treated i.p. with an aqueous solution of the tested compound (doses: 3, 10, 30 mg/Kg), 1 hour before the formalin injection. Control animals received only the vehicle.
In Table 8, the analgesic effect elicited in this test by a representative compound of Formula (I), is expressed as ED50 both for the early and late phase, and compared with the performance of the standard reference, paracetamol.

[4] = tested on: mechanical hyperalgesia associated with STZ-induced diabetes; assay: STZ-induced diabetes mechanical hyperalgesia (neuropathic pain); type: in vivo, rat
Description: Streptozotocin (STZ)-induced diabetes in the rat has been increasingly used as a model of painful diabetic neuropathy to assess the efficacies of potential analgesic agents (C. Courteix, Pain 1993, 53, 81-8). The compounds of the invention were tested for efficacy in reducing mechanical hyperalgesia associated with STZ-induced diabetes in the rat, according to the experimental model as described by the literature. Diabetes was produced with the injection of a single dose (75 mg/Kg i.p.) of STZ. In the following four weeks after the induction of diabetes the clinical symptoms (weight, body and skin temperature, motility and hyperglycemia) progressively developed by the animals, are strictly monitored. After four weeks, the scores obtained in diabetic rats to various pain stimuli (in particular mechanical stimuli) were grater than those in normal rats, indicating hyperalgesia. The hyperalgesia induced by diabetes was evaluated using the Randall-Selitto method as above described, and quantitated using the analgesimeter. Also in this case, the difference in the mechanical pain threshold between the basal value (generally 230-250 g) and the one tolerated by the animals treated with the drug, is defined as mechanical hyperalgesia. The compounds of the invention were administered i.p. (solution, Tween 80, 10% in saline) at different doses, and mechanical hyperalgesia was measured at the reported time, as maximum percent effect (MPE) which represents the difference (%) in pain threshold between the animals treated with the drug and the controls that received only the vehicle, compared with the weight borne by naïf non-diabetic controls. A 100% protection means that the diabetic animals treated with the compound can tolerate the same stimulus (weight) as the naïf non-diabetic animals. MPE higher than 100% means that the diabetic animal treated with the compound can tolerate stimuli (weight) higher than the control non-diabetic animals (hypoalgesia).

[5] = tested on: acetic acid-induced abdominal writhes; assay: Acetic acid-induced writhing test; type: in vivo, mice
Description: With the aim of assessing whether the compounds of the invention are able to inhibit responses to peritoneal irritation-induced visceral pain, the acetic acid-induced writhing assay was used in mice to determine the degree of anti-nociception.
The writhing test is a model of inflammatory pain that has long been used as a screening tool for evaluation of analgesic and anti-inflammatory agents (HDJ Collier, B. J. Pharmacol Chemother., 1968, 32, 295-310). The test was performed inducing nociception by an i.p. injection of acetic acid 1%, 0.1 mL/10 g of body weight. Mice were pre-treated (subcutaneously, s.c., three different doses: 3, 10, 30 mg/Kg) with the tested compounds 30 min. before acetic acid injection, while control animals received a similar volume of saline solution. A group of mice was treated with Paracetamol (200 mg/Kg, s.c.) as reference drug. The number of abdominal writhes (full extension of both hind paws) was cumulatively counted every 5 minutes over a period of 20 min. immediately after the acetic acid injection. The anti-nociceptive activity was expressed as inhibition of abdominal writhes as maximum percent effect (MPE), which represents the difference (%) in pain threshold between the animals treated with the drug and the ones that received only the vehicle.

[6] = oral, 30 min before zymosan, 4 hours after challenge
[7] = oral, calculated from linear dose-response

For `Cc1ccc(-c2cc(C(F)(F)F)nn2-c2ccc(S(N)(=O)=O)cc2)cc1` [Celecoxib, reference compound], which ED50 [1, 6] is on record?
The ED50 was 9 mg/kg.

And the “Analgesia ED100” value ([1]; oral)?
Its value is 1172 mg/kg.

What about the ED50 [2, 7] of the same compound?
Its ED50 is 644 mg/kg.

What about the “Oedema Reduction ED30” value ([2]; oral) of the same compound?
The value was 13.8 mg/kg.

Which results are given for `CN1C(C(=O)Nc2ccccn2)=C(O)c2ccccc2S1(=O)=O` [Piroxicam, reference compound]?
MPE 0.5 hrs. (CFA-induced hyperalgesia; 30 mg/Kg i.p.): 102%; MPE 1.5 hrs. (CFA-induced hyperalgesia; 30 mg/Kg i.p.): 111%; MPE 3 hrs. (CFA-induced hyperalgesia; 30 mg/Kg i.p.): 54%; MPE 6 hrs. (CFA-induced hyperalgesia; 30 mg/Kg i.p.): 24%; MPE 24 hrs. (CFA-induced hyperalgesia; 30 mg/Kg i.p.): 38%

Which ED50 [1, 6] does the source give for `CS(=O)(=O)Nc1ccc([N+](=O)[O-])cc1Oc1ccccc1` [Nimesulide, reference compound] here?
The ED50 was 7.4 mg/kg.

What about the “Analgesia ED100” value ([1]; oral) of the same compound?
The value was 161 mg/kg.

And the ED50 [2, 7]?
The ED50 was 33.4 mg/kg.

And the “Oedema Reduction ED30” value ([2]; oral)?
Its value is 0.5 mg/kg.

For `COc1ccc2c(c1)c(CC(=O)O)c(C)n2C(=O)c1ccc(Cl)cc1` [Indomethacine], which “Analgesic effect ED50 (mg/Kg) Late phase” value ([3]; i.p., 1 hour before formalin, late phase) is on record?
Its value is 10 mg/kg.

Which ED50 ([3]; read-out: Analgesic effect ED50 (mg/Kg) Early phase) does the source give for `CN1CC[C@]23c4c5ccc(O)c4O[C@H]2[C@@H](O)C=C[C@H]3[C@H]1C5` [Morphine] here?
The ED50 was 4 mg/kg.

What about the ED50 ([3]; read-out: Analgesic effect ED50 (mg/Kg) Late phase) of the same compound?
Its ED50 is 4 mg/kg.

With `COc1cccc(C2(O)CCCCC2CN(C)C)c1` (centres unmarked) [Tramadol, reference compound] as the compound, how does the “MPE 0.5 hrs.” value ([4]; 3 mg/Kg i.p.) read?
Its value is 26%.

And the “MPE 1.5 hrs.” value ([4]; 3 mg/Kg i.p.)?
Its value is 53%.

And the “MPE 3 hrs.” value ([4]; 3 mg/Kg i.p.)?
The value was 7%.

And the “MPE 0.5 hrs.” value ([4]; 10 mg/Kg i.p.)?
The value was 58%.

What about the “MPE 1.5 hrs.” value ([4]; 10 mg/Kg i.p.) of the same compound?
The value was 48%.

What about the “MPE 3 hrs.” value ([4]; 10 mg/Kg i.p.) of the same compound?
The value was 27%.

And the “MPE 0.5 hrs.” value ([4]; 30 mg/Kg i.p.)?
Its value is 54%.

And the “MPE 1.5 hrs.” value ([4]; 30 mg/Kg i.p.)?
Its value is 64%.

What about the “MPE 3 hrs.” value ([4]; 30 mg/Kg i.p.) of the same compound?
The value was 23%.

What about the “MPE 0.5 hrs.” value ([4]; 50 mg/Kg i.p.) of the same compound?
The value was 81%.

And the “MPE 1.5 hrs.” value ([4]; 50 mg/Kg i.p.)?
The value was 60%.

What about the “MPE 3 hrs.” value ([4]; 50 mg/Kg i.p.) of the same compound?
Its value is 43%.

And the ED50 [1]?
The ED50 was 25.7 mg/kg.

And the “Analgesia ED100” value ([1]; oral)?
Its value is 405 mg/kg.

Which “MPE (%)” value ([5]; 200 mg/Kg s.c.) does the source give for `CC(=O)Nc1ccc(O)cc1` [Paracetamol] here?
The value was 61%.

And the ED50 ([3]; 1 hour before formalin, early phase, read-out: Analgesic effect ED50 (mg/Kg) Early phase)?
Its ED50 is 230 mg/kg.

What about the ED50 ([3]; 1 hour before formalin, late phase, read-out: Analgesic effect ED50 (mg/Kg) Late phase) of the same compound?
The ED50 was 107 mg/kg.

What does the source list for `CC(=N)Nc1ccc2nc(-c3ccc4c(c3)CCO4)ncc2c1` [Example 4, N-[2-(2,3-dihydro-benzofuran-5-yl)quinazolin-6-yl]acetamidine dihydrochloride hemihydrate]?
MPE 0.5 hrs. ([4]; 3 mg/Kg i.p.): 56%; MPE 1.5 hrs. ([4]; 3 mg/Kg i.p.): 15%; MPE 0.5 hrs. ([4]; 10 mg/Kg i.p.): 78%; MPE 1.5 hrs. ([4]; 10 mg/Kg i.p.): 24%; MPE 0.5 hrs. ([4]; 30 mg/Kg i.p.): 163%; MPE 1.5 hrs. ([4]; 30 mg/Kg i.p.): 74%; MPE (%) ([5]; 3 mg/Kg s.c., 30 min. before acetic acid): 18%; MPE (%) ([5]; 10 mg/Kg s.c., 30 min. before acetic acid): 41%; MPE (%) ([5]; 30 mg/Kg s.c., 30 min. before acetic acid): 36%; ED50 ([5]; Mus musculus, sc): 59.6 mg/kg; ED50 [1]: 5.8 mg/kg; Analgesia ED100 ([1]; oral): 17 mg/kg; ED50 ([2]; po): 170 mg/kg; Oedema Reduction ED30 ([2]; oral): 25 mg/kg; MPE 1.5 hrs. (CFA-induced hyperalgesia; 3 mg/Kg i.p.): 44%; MPE 0.5 hrs. (CFA-induced hyperalgesia; 10 mg/Kg i.p.): 47%; MPE 1.5 hrs. (CFA-induced hyperalgesia; 10 mg/Kg i.p.): 27%; MPE 3 hrs. (CFA-induced hyperalgesia; 10 mg/Kg i.p.): 25%; MPE 6 hrs. (CFA-induced hyperalgesia; 10 mg/Kg i.p.): 66%; MPE 24 hrs. (CFA-induced hyperalgesia; 10 mg/Kg i.p.): 57%; MPE 0.5 hrs. (CFA-induced hyperalgesia; 30 mg/Kg i.p.): 243%; MPE 1.5 hrs. (CFA-induced hyperalgesia; 30 mg/Kg i.p.): 270%; MPE 3 hrs. (CFA-induced hyperalgesia; 30 mg/Kg i.p.): 170%; MPE 6 hrs. (CFA-induced hyperalgesia; 30 mg/Kg i.p.): 103%; MPE 24 hrs. (CFA-induced hyperalgesia; 30 mg/Kg i.p.): 76%

How did the “MPE 0.5 hrs.” value ([4]; 1 mg/Kg i.p.) turn out when `CN(C)CCC=C1c2ccccc2CCc2ccccc21` [Amitriptyline, reference compound] was run?
Its value is 72%.

And the “MPE 1.5 hrs.” value ([4]; 1 mg/Kg i.p.)?
The value was 89%.

What about the “MPE 0.5 hrs.” value ([4]; 3 mg/Kg i.p.) of the same compound?
The value was 44%.

What about the “MPE 1.5 hrs.” value ([4]; 3 mg/Kg i.p.) of the same compound?
The value was 40%.

And the “MPE 3 hrs.” value ([4]; 3 mg/Kg i.p.)?
Its value is 5%.

And the “MPE 0.5 hrs.” value ([4]; 10 mg/Kg i.p.)?
Its value is 68%.

What about the “MPE 1.5 hrs.” value ([4]; 10 mg/Kg i.p.) of the same compound?
Its value is 77%.

What about the “MPE 0.5 hrs.” value ([4]; 30 mg/Kg i.p.) of the same compound?
Its value is 65%.

And the “MPE 1.5 hrs.” value ([4]; 30 mg/Kg i.p.)?
Its value is 69%.

And the “MPE 3 hrs.” value ([4]; 30 mg/Kg i.p.)?
The value was 23%.
